Measured values reported in patent US9302999B2, “Substituted triazoles as herbicides” (E. I. DU PONT DE NEMOURS AND COMPANY, priority 2012, dated 2016).

Legend:
Assay type in all cases: in vivo
[1] = tested on: bromegrass, downy (downy bromegrass, Bromus tectorum); assay: Test C pre-/postemergence: bromegrass, downy
Procedure, shortened: (§1)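 Preemergence on seeds in loam/sand, postemergence on 2–18 cm (1–4-leaf) plants in peat-based medium; compounds in non-phytotoxic solvent with surfactant. After 13–15 days in greenhouse, visual rating versus controls, 0 (no effect) to 100 (complete control).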

[2] = tested on: foxtail, green (green foxtail, Setaria viridis); assay: Test C pre-/postemergence: foxtail, green
Procedure, shortened: as §1

[3] = tested on: surinam grass (Brachiaria decumbens); assay: Test C pre-/postemergence: surinam grass
Procedure, shortened: as §1

[4] = tested on: cocklebur (common cocklebur, Xanthium strumarium); assay: Test C pre-/postemergence: cocklebur
Procedure, shortened: as §1

[5] = tested on: goosegrass (Eleusine indica); assay: Test C pre-/postemergence: goosegrass
Procedure, shortened: as §1

[6] = tested on: nightshade (eastern black nightshade, Solanum ptycanthum); assay: Test C pre-/postemergence: nightshade; details: Preemergence
Procedure, shortened: as §1

[7] = tested on: barley (winter barley, Hordeum vulgare); assay: Test C postemergence: barley
Procedure, shortened: (§2)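 Pot-grown plants in peat/vermiculite medium sprayed postemergence at 2–18 cm height (1- to 4-leaf stage). Kept in greenhouse 13 to 15 days, then visually rated against untreated controls on a 0–100 scale (0 = no effect, 100 = complete control).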

[8] = tested on: canarygrass (Phalaris minor); assay: Test C postemergence: canarygrass
Procedure, shortened: as §2

[9] = tested on: windgrass (Apera spica-venti); assay: Test C postemergence: windgrass
Procedure, shortened: as §2

[10] = tested on: deadnettle (henbit deadnettle, Lamium amplexicaule); assay: Test C postemergence: deadnettle
Procedure, shortened: as §2

[11] = Postemergence, 16 g ai/ha, scale 0 to 100, 0 no effect, 100 complete control
[12] = Postemergence, 31 g ai/ha, scale 0 to 100 (0 no effect, 100 complete control)
[13] = Postemergence, 62 g ai/ha, scale 0 to 100 (0 no effect, 100 complete control)
[14] = Postemergence, 125 g ai/ha, scale 0 to 100, 0 no effect, 100 complete control
[15] = Preemergence, 16 g ai/ha, scale 0 (no effect) to 100 (complete control)
[16] = Preemergence, 31 g ai/ha, scale of 0 to 100, 0 is no effect, 100 is complete control
[17] = Preemergence, 125 g ai/ha, scale 0 to 100, 0 no effect, 100 complete control
[18] = Preemergence, 62 g ai/ha, scale of 0 to 100, 0 is no effect, 100 is complete control
[19] = 31 g ai/ha, scale of 0 to 100, 0 is no effect, 100 is complete control
[20] = 62 g ai/ha, scale of 0 to 100, 0 is no effect, 100 is complete control
[21] = 125 g ai/ha, scale 0 to 100, 0 no effect, 100 complete control
[22] = 16 g ai/ha, scale 0 to 100, 0 no effect, 100 complete control
[23] = 31 g ai/ha, scale 0 to 100 (0 no effect, 100 complete control)
[24] = 62 g ai/ha, scale 0 to 100 (0 no effect, 100 complete control)
[25] = Postemergence, 250 g ai/ha, scale 0 to 100
[26] = Preemergence, 250 g ai/ha, scale 0 to 100, 0 no effect, 100 complete control

COc1nn(-c2ccc(C(F)(F)F)cc2)nc1Cc1ccnc(C(F)(F)F)c1 [Compound 15, 4-[[5-methoxy-2-[4-(trifluoromethyl)phenyl]-2H-1,2,3-triazol-4-yl]methyl]-2-(trifluoromethyl)pyridine]
Plant response rating, Bromegrass, Downy [1, 11]: 10
Plant response rating, Bromegrass, Downy [1, 12]: 25
Plant response rating, Bromegrass, Downy [1, 13]: 35
Plant response rating, Bromegrass, Downy [1, 14]: 40
Plant response rating, Bromegrass, Downy [1, 15]: 15
Plant response rating, Bromegrass, Downy [1, 16]: 25
Plant response rating, Bromegrass, Downy ([1]; Preemergence, 62 g ai/ha, scale 0 to 100, 0 no effect, 100 complete control): 30
Plant response rating, Bromegrass, Downy [1, 17]: 80
Plant response rating, Foxtail, Green [2, 11]: 30
Plant response rating, Foxtail, Green [2, 12]: 40
Plant response rating, Foxtail, Green [2, 13]: 85
Plant response rating, Foxtail, Green [2, 14]: 85
Plant response rating, Foxtail, Green [2, 15]: 95
Plant response rating, Foxtail, Green [2, 16]: 95
Plant response rating, Foxtail, Green [2, 18]: 100
Plant response rating, Foxtail, Green [2, 17]: 100
Plant response rating, Surinam Grass [3, 11]: 5
Plant response rating, Surinam Grass [3, 12]: 10
Plant response rating, Surinam Grass [3, 13]: 15
Plant response rating, Surinam Grass [3, 14]: 50
Plant response rating, Surinam Grass [3, 15]: 10
Plant response rating, Surinam Grass [3, 16]: 40
Plant response rating, Surinam Grass [3, 18]: 55
Plant response rating, Surinam Grass [3, 17]: 90
Plant response rating, Cocklebur [4, 12]: 5
Plant response rating, Cocklebur [4, 13]: 60
Plant response rating, Cocklebur [4, 14]: 75
Plant response rating, Cocklebur [4, 15]: 0
Plant response rating, Cocklebur [4, 16]: 0
Plant response rating, Cocklebur [4, 17]: 65
Plant response rating, Goosegrass [5, 11]: 5
Plant response rating, Goosegrass [5, 12]: 25
Plant response rating, Goosegrass [5, 13]: 40
Plant response rating, Goosegrass [5, 14]: 65
Plant response rating, Goosegrass [5, 15]: 100
Plant response rating, Goosegrass [5, 16]: 100
Plant response rating, Goosegrass [5, 18]: 100
Plant response rating, Goosegrass [5, 17]: 100
Plant response rating, Nightshade ([6]; 16 g ai/ha, scale 0 (no effect) to 100 (complete control)): 10
Plant response rating, Nightshade [6, 19]: 25
Plant response rating, Nightshade [6, 20]: 85
Plant response rating, Nightshade [6, 21]: 90
Plant response rating, Barley [7, 22]: 30
Plant response rating, Barley [7, 23]: 35
Plant response rating, Barley [7, 24]: 35
Plant response rating, Barley [7, 21]: 50
Plant response rating, Canarygrass [8, 22]: 35
Plant response rating, Canarygrass [8, 23]: 60
Plant response rating, Canarygrass [8, 24]: 85
Plant response rating, Canarygrass [8, 21]: 85
Plant response rating, Windgrass [9, 22]: 20
Plant response rating, Windgrass [9, 23]: 20
Plant response rating, Windgrass [9, 24]: 85
Plant response rating, Windgrass [9, 21]: 90
Plant response rating, Deadnettle [10, 22]: 90
Plant response rating, Deadnettle [10, 23]: 100
Plant response rating, Deadnettle [10, 24]: 100
Plant response rating, Deadnettle [10, 21]: 100

COc1nn(-c2ccc(C(F)(F)F)cc2)nc1Cc1ccnc(C(F)F)c1 [Compound 138]
Plant response rating, Bromegrass, Downy [1, 12]: 40
Plant response rating, Bromegrass, Downy [1, 13]: 45
Plant response rating, Bromegrass, Downy [1, 14]: 50
Plant response rating, Bromegrass, Downy [1, 25]: 65
Plant response rating, Bromegrass, Downy [1, 16]: 10
Plant response rating, Bromegrass, Downy [1, 18]: 30
Plant response rating, Bromegrass, Downy [1, 17]: 60
Plant response rating, Bromegrass, Downy [1, 26]: 80
Plant response rating, Foxtail, Green [2, 12]: 35
Plant response rating, Foxtail, Green [2, 13]: 85
Plant response rating, Foxtail, Green [2, 14]: 90
Plant response rating, Foxtail, Green [2, 25]: 90
Plant response rating, Foxtail, Green [2, 16]: 90
Plant response rating, Foxtail, Green [2, 18]: 95
Plant response rating, Foxtail, Green [2, 17]: 95
Plant response rating, Foxtail, Green [2, 26]: 95
Plant response rating, Surinam Grass [3, 12]: 45
Plant response rating, Surinam Grass [3, 13]: 50
Plant response rating, Surinam Grass [3, 14]: 65
Plant response rating, Surinam Grass [3, 16]: 55
Plant response rating, Surinam Grass [3, 18]: 80
Plant response rating, Surinam Grass [3, 17]: 85
Plant response rating, Surinam Grass [3, 26]: 100
Plant response rating, Cocklebur [4, 12]: 65
Plant response rating, Cocklebur [4, 13]: 70
Plant response rating, Cocklebur [4, 14]: 85
Plant response rating, Cocklebur [4, 25]: 85
Plant response rating, Cocklebur [4, 16]: 5
Plant response rating, Cocklebur [4, 18]: 5
Plant response rating, Cocklebur [4, 17]: 15
Plant response rating, Cocklebur [4, 26]: 15
Plant response rating, Goosegrass [5, 12]: 5
Plant response rating, Goosegrass [5, 13]: 25
Plant response rating, Goosegrass [5, 14]: 50
Plant response rating, Goosegrass [5, 25]: 80
Plant response rating, Goosegrass [5, 16]: 100
Plant response rating, Goosegrass [5, 18]: 100
Plant response rating, Goosegrass [5, 17]: 100
Plant response rating, Goosegrass [5, 26]: 100
Plant response rating, Nightshade [6, 19]: 90
Plant response rating, Nightshade [6, 20]: 95
Plant response rating, Nightshade [6, 21]: 98
Plant response rating, Nightshade ([6]; 250 g ai/ha, scale 0 to 100, 0 no effect, 100 complete control): 98
Plant response rating, Barley [7, 23]: 10
Plant response rating, Barley [7, 24]: 30
Plant response rating, Barley [7, 21]: 35
Plant response rating, Barley ([7]; 250 g ai/ha, scale 0 to 100): 60
Plant response rating, Canarygrass [8, 23]: 30
Plant response rating, Canarygrass [8, 24]: 55
Plant response rating, Canarygrass [8, 21]: 70
Plant response rating, Canarygrass ([8]; 250 g ai/ha, scale 0 to 100): 90
Plant response rating, Windgrass [9, 23]: 50
Plant response rating, Windgrass [9, 24]: 50
Plant response rating, Windgrass [9, 21]: 55
Plant response rating, Windgrass ([9]; 250 g ai/ha, scale 0 to 100): 80
Plant response rating, Deadnettle [10, 23]: 98
Plant response rating, Deadnettle [10, 24]: 100
Plant response rating, Deadnettle [10, 21]: 100
Plant response rating, Deadnettle ([10]; 250 g ai/ha, scale 0 to 100): 100
